Test results: patent US11648254B2 (Kumquat Biosciences Inc., priority 2021, dated 2023)
Like-named read-outs stand apart in the source and are kept apart here.

Columns and labels:
[1] = tested on: ERK phosphorylation (p-ERK 1/2 Thr202/Tyr204) in MIA PaCa-2 or NCI-H1975 cells; experiment: ERK phosphorylation assay (AlphaLISA p-ERK 1/2); type: cell-based; conditions: MIA PaCa-2 cells or EGFR mutant NCI-H1975 cells; read-out: IC50 for the inhibition of ERK phosphorylation
Experimental: MIA PaCa-2 cells (ATCC CRL-1420) expressing K-Ras G12C is grown in DMEM/Ham's F12 medium supplemented with 10% fetal calf serum, glutamine and ˜2.5% horse serum. Alternatively, other cell lines with aberrant Ras signaling output can be utilized. Non-limiting exemplary cell lines include NCI-H358 and H1975. Cells are plated in 96-well plates at a concentration of 40,000 cells/well and allowed to attach for at least 8 hours. Following, diluted solutions of test inhibitor compounds are added to the cell culture. After ˜2 hours of incubation, the medium is removed and lysis buffer from AlphaLISA® SureFire® Ultra™ p-ERK 1/2 (Thr202/Tyr204) assay kit (Perkin Elmer ALSU-PERK-A10K) is added to the cells. The plate is agitated for 10 min at room temperature and 10 μL of the lysate is transferred to a 384-well Optiplate™ (Perkin Elmer) for assay. Thereafter ˜5 μL of Acceptor Mix from the p-ERK AlphaLISA assay kit is added to wells and plate is sealed with adhesive film. The samples are incubated for one hour at room temperature. Following, 5 μL of Donor Mix is added to the wells and plate is re-sealed with adhesive film, and incubated for one hour at room temperature. The plate is then read on a multimode microplate reader (e.g., SPARK©Tecan) equipped with Alpha detection module. The data can be fitted to four-parameter dose-response curve using Prism version 9 (GraphPad) to calculate an IC50 for the inhibition of ERK phosphorylation. […] 355, 332, 366, 216, 264, 356, 266, in an ERK phosphorylation assay utilizing either MIA PaCa-2 cells (ATCC CRL-1420) or EGFR mutant cell line (NCI-H1975 (ATCC CRL-5908)).

SOS1 = SOS1 (Homo sapiens (Human), UniProt Q07889); experiment: Ras-SOS interaction assay (HTRF); type: biochemical
[2] = tested on: NCI-H1975 cells (EGFR T790M L858R); experiment: EGFR-SOS cellular inhibition assay (CellTiter-Glo, 3D); type: cell-based; conditions: Homo sapiens
[3] = tested on: MIA PaCa-2 cells (K-Ras G12C); experiment: Ras-SOS cellular growth inhibition assay (CellTiter-Glo, 3D); type: cell-based; conditions: Homo sapiens
Outline: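 Growth read by CellTiter-Glo luminescence about 5 days after dosing with 3-fold dilutions (9 points), added one day post-seeding. Cells: MIA PaCa-2, 3D culture on ultra-low-attachment surface, medium DMEM/Ham's F12 plus 10% FCS and 2.5% horse serum; IC50 by four-parameter fit.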

[4] = In vitro plasma protein binding (PPB); type: in vitro ADME; conditions: percentage of free/unbound compound
[5] = Metabolic (microsomal) stability assay; type: in vitro ADME; conditions: mouse liver microsomes, T1/2; read-out: DMPK-invitro-metabolic Stability (Mouse T1/2)
Source text: Example 12: Metabolic (Microsomal) Stability Assay

[6] = K-RasG13D utilized, read-out: IC50 inhibition of SOS
[7] = K-RasG13D, read-out: IC50 value against SOS1
[8] = 120 h, NCI-H1975, 3D proliferation, about 5 days, read-out: Bio-Cell-Prolif-3D (H1975 IC50)
[9] = NCI-H1975, EGFR T790M L858R, read-out: IC50 in inhibiting growth of NCI-H1975 cell line
[10] = MIA PaCa-2, 120 h, MIA PaCa-2, 3D proliferation, about 5 days, read-out: Bio-Cell-Prolif-3D (MiaPaca2 IC50)
[11] = MIA PaCa-2, MIA PaCa-2, read-out: IC50 in inhibiting MIA PaCa-2 cell growth

Sequence of SOS1 (Q07889 564-1049): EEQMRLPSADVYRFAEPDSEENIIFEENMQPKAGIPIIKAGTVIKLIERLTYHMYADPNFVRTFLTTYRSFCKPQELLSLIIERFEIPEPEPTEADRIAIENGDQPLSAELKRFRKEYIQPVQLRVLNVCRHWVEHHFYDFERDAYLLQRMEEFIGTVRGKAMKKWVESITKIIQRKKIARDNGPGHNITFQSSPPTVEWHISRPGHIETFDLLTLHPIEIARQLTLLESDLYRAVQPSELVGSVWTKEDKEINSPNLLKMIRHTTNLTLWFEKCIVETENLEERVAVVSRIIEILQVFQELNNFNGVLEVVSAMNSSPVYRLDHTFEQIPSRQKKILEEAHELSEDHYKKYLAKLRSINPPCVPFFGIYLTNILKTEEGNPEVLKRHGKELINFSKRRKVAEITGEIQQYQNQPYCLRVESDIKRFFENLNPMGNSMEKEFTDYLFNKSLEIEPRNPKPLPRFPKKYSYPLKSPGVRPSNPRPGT

Compound: COc1nc2nc(C)nc(N[C@H](C)c3cccc(C(F)(F)[C@H](C)O)c3)c2cc1C1(C#N)CC1 [Compound 216, 1-(4-(((R)-1-(3-((S)-1,1-difluoro-2-hydroxypropyl)phenyl)ethyl)amino)-7-methoxy-2-methylpyrido[2,3-d]pyrimidin-6-yl)cyclopropane-1-carbonitrile]
- IC50 [1]: < 1000 nM
- IC50 (SOS1; [6]): < 100 nM
- IC50 (SOS1; [7]): < 50 nM
- IC50 [2, 8]: ≤ 1000 nM
- IC50 [2, 9]: < 500 nM
- IC50 [3, 10]: ≤ 1000 nM
- IC50 [3, 11]: < 500 nM

Compound: COc1nc2ncnc(N[C@H](C)c3cccc(C(F)(F)[C@@H](C)O)c3)c2cc1C1(C#N)CC1 [Compound 264, 1-(4-(((R)-1-(3-((R)-1,1-difluoro-2-hydroxypropyl)phenyl)ethyl)amino)-7-methoxypyrido[2,3-d]pyrimidin-6-yl)cyclopropane-1-carbonitrile]
- IC50 [1]: < 1000 nM
- IC50 (SOS1; [6]): < 100 nM
- IC50 (SOS1; [7]): < 50 nM
- IC50 [2, 8]: ≤ 1000 nM
- IC50 [2, 9]: < 500 nM
- DMPK-invitro-PPB (Mouse Unbound) [%] [4]: 4.94%
- IC50 [3, 10]: ≤ 1000 nM
- IC50 [3, 11]: < 500 nM
- half-life [5]: 55.1 min

Compound: COc1nc2ncnc(N[C@H](C)c3cccc(C(F)(F)[C@H](C)O)c3)c2cc1C1(C#N)CC1 [Compound 266, 1-(4-(((R)-1-(3-((S)-1,1-difluoro-2-hydroxypropyl)phenyl)ethyl)amino)-7-methoxypyrido[2,3-d]pyrimidin-6-yl)cyclopropane-1-carbonitrile]
- IC50 [1]: < 1000 nM
- IC50 (SOS1; [6]): < 100 nM
- IC50 (SOS1; [7]): < 50 nM
- IC50 [2, 8]: ≤ 1000 nM
- IC50 [2, 9]: < 500 nM
- IC50 [3, 10]: ≤ 1000 nM
- IC50 [3, 11]: < 500 nM

Compound: COc1nc2nc(C)nc(N[C@H](C)c3cccc(C(F)(F)[C@@H](C)O)c3F)c2cc1C1(C#N)CC1 [Compound 332, 1-(4-(((R)-1-(3-((R)-1,1-difluoro-2-hydroxypropyl)-2-fluorophenyl)ethyl)amino)-7-methoxy-2-methylpyrido[2,3-d]pyrimidin-6-yl)cyclopropane-1-carbonitrile]
- IC50 [1]: < 1000 nM
- IC50 (SOS1; [6]): < 100 nM
- IC50 (SOS1; [7]): < 50 nM
- IC50 [2, 8]: ≤ 1000 nM
- IC50 [2, 9]: < 500 nM
- DMPK-invitro-PPB (Mouse Unbound) [%] [4]: 0.3%
- IC50 [3, 10]: ≤ 1000 nM
- IC50 [3, 11]: < 500 nM
- half-life [5]: 30.1 min

Compound: C[C@@H](Nc1ncnc2nc(Cl)c(C3(C#N)CC3)cc12)c1cccc(C(F)(F)F)c1F [Compound 354, (R)-1-(7-chloro-4-((1-(2-fluoro-3-(trifluoromethyl)phenyl)ethyl)amino)pyrido[2,3-d]pyrimidin-6-yl)cyclopropane-1-carbonitrile]
- IC50 (SOS1; [6]): < 100 nM
- IC50 [2, 8]: ≤ 1000 nM
- IC50 [2, 9]: < 500 nM
- DMPK-invitro-PPB (Mouse Unbound) [%] [4]: 0.52%
- IC50 [3, 10]: ≤ 1000 nM
- IC50 [3, 11]: < 500 nM
- half-life [5]: > 200 min

Compound: COc1nc2ncnc(N[C@H](C)c3cccc(C(F)(F)C(C)(C)O)c3)c2cc1C1(C#N)CC1 [Compound 355, (R)-1-(4-((1-(3-(1,1-difluoro-2-hydroxy-2-methylpropyl)phenyl)ethyl)amino)-7-methoxypyrido[2,3-d]pyrimidin-6-yl)cyclopropane-1-carbonitrile]
- IC50 [1]: < 1000 nM
- IC50 (SOS1; [6]): < 100 nM
- IC50 (SOS1; [7]): < 50 nM
- IC50 [2, 8]: ≤ 1000 nM
- IC50 [2, 9]: < 500 nM
- DMPK-invitro-PPB (Mouse Unbound) [%] [4]: 0.89%
- IC50 [3, 10]: ≤ 1000 nM
- IC50 [3, 11]: < 500 nM
- half-life [5]: > 200 min

Compound: COc1nc2ncnc(N[C@H](C)c3cccc(C(F)(F)C(C)(C)O)c3F)c2cc1C1(C#N)CC1 [Compound 356, (R)-1-(4-((1-(3-(1,1-difluoro-2-hydroxy-2-methylpropyl)-2-fluorophenyl)ethyl)amino)-7-methoxypyrido[2,3-d]pyrimidin-6-yl)cyclopropane-1-carbonitrile]
- IC50 [1]: < 1000 nM
- IC50 (SOS1; [6]): < 100 nM
- IC50 (SOS1; [7]): < 50 nM
- IC50 [2, 8]: ≤ 1000 nM
- IC50 [2, 9]: < 500 nM
- DMPK-invitro-PPB (Mouse Unbound) [%] [4]: 0.48%
- IC50 [3, 10]: ≤ 1000 nM
- IC50 [3, 11]: < 500 nM
- half-life [5]: > 200 min

Compound: COc1nc2nc(C)nc(N[C@H](C)c3cccc(C(F)(F)[C@@H](C)O)c3)c2cc1C1(C#N)CC1 [Compound 366, 1-(4-(((R)-1-(3-((R)-1,1-difluoro-2-hydroxypropyl)phenyl)ethyl)amino)-7-methoxy-2-methylpyrido[2,3-d]pyrimidin-6-yl)cyclopropane-1-carbonitrile]
- IC50 [1]: < 1000 nM
- IC50 (SOS1; [6]): < 100 nM
- IC50 (SOS1; [7]): < 50 nM
- IC50 [2, 8]: ≤ 1000 nM
- IC50 [2, 9]: < 500 nM
- DMPK-invitro-PPB (Mouse Unbound) [%] [4]: 1.32%
- IC50 [3, 10]: ≤ 1000 nM
- IC50 [3, 11]: < 500 nM
- half-life [5]: 25.7 min
